Data reported in US10022440B2, “Materials and methods for modulating immune responses” (UNIVERSITY OF FLORIDA RESEARCH FOUNDATION, INCORPORATED, priority 2011, dated 2018).

Legend:
whole bone marrow cells = assay: In vitro migration assay toward GM-CSF, bone marrow cells; assay type: cell-based, mouse; conditions: for increase in cell migration: after 24 hrs, in the presence of GM-CSF, n=3 per group
Experimental: (§1) An in vitro migration assay was performed to evaluate the migratory capacity of splenocytes and bone marrow cells toward GM-CSF. NOD, non-obese resistant (NOR), and C57/BL6 (n=3 per group) mouse cells were used in this assay.

splenocytes = assay: In vitro migration assay toward GM-CSF, splenocytes; assay type: cell-based, mouse; conditions: for increase in cell migration: after 24 hrs, in the presence of GM-CSF, n=3 per group
Experimental: as §1

GM-CSF
increase in cell migration (whole bone marrow cells; C57/BL6 whole bone marrow cells): 100%
cell migration (whole bone marrow cells; NOD bone marrow cells, compared with NOR and C57/BL6 bone marrow cells): migrated in a similar manner
increase in cell migration (whole bone marrow cells; NOR whole bone marrow cells): 100%
increase in cell migration (splenocytes; C57/BL6 splenocytes): 100%
migration ratios with or without GM-CSF (splenocytes; NOD splenocytes, p<0.05): no difference
increase in cell migration (splenocytes; NOR splenocytes): 100%
